From patent US8163724B2, “Glucocorticosteroids, processes for their preparation, pharmaceutical compositions containing them and their use in therapy” (AstraZeneca AB, priority 2007, dated 2012)

Biological target: T1, recombinant human GR (Homo sapiens, UniProt P04150)
T1 construct: purchased Panvera/Invitrogen P2812 (kit P2893)
T1 sequence (P04150 1-777): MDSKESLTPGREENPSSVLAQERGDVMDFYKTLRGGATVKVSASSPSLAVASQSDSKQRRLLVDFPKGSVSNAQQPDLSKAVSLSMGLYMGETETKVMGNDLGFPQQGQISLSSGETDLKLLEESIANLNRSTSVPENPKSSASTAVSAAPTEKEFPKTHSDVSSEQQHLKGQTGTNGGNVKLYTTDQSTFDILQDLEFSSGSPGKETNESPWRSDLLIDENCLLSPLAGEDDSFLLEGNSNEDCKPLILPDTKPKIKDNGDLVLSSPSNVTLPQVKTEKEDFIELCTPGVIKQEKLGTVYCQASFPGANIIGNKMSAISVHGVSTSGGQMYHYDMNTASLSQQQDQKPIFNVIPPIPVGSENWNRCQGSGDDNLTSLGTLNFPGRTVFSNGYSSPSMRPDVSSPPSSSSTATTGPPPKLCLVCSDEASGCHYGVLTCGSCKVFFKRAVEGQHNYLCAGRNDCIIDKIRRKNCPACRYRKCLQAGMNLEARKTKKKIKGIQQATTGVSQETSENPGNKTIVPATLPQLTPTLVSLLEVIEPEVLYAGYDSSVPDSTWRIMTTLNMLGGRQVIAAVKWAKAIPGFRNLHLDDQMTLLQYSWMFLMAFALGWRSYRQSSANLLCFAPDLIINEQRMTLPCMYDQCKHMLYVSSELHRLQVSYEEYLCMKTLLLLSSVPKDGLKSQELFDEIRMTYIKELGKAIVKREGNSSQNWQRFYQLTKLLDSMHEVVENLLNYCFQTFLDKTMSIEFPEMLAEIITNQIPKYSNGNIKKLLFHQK
Assay: Human Glucocorticoid Receptor (GR) Assay (fluorescence polarization, Panvera/Invitrogen kit)
Assay type: binding
Conditions: fluorescence polarization; GS Red tracer; 2 hours at room temperature; 100% control 10 μM Dexamethasone; read-out: Inhibition of GR binding, IC50
Experimental: Human Glucocorticoid Receptor (GR) Assay
The assay is based on a commercial kit from Panvera/Invitrogen (Part number P2893). The assay technology is fluorescence polarization. […] The GR and Stabilizing Peptide reagents are stored at −70° C. while the GS Red is stored at −20° C. Also included in the kit are 1M DTT (Panvera, Part number P2325, stored at −20° C.) and GR Screening buffer 10× (Panvera, Part number P2814, stored at −70° C. initially but once thawed stored at room temperature). Avoid repeated freeze/thaws for all reagents. The GR Screening buffer 10× comprises 100 mM potassium phosphate, 200 mM sodium molybdate, 1 mM EDTA and 20% DMSO.
0% control was 100% DMSO and 100% control was 10 μM Dexamethasone. Background solution (8 μL; assay buffer 10×, Stabilizing Peptide, DTT and ice cold MQ water) was added to the background wells. GS Red solution (7 μL; assay buffer 10×, Stabilizing Peptide, DTT, GS Red and ice cold water) was added to all wells except background wells. GR solution (7 μL; assay buffer 10×, Stabilizing Peptide, DTT, GR and ice cold water) was added to all wells. The plate was sealed and incubated in a dark at room temperature for 2 hours.

Row | SMILES | IC50
1 | C[C@]12Cc3cnn(-c4ccc(F)cc4)c3C=C1CC[C@@H]1[C@@H]2[C@@H](O)C[C@@]2(C)[C@H]1CC[C@]2(OC(=O)[C@H]1CCCO1)C(=O)SCC#N (single isomer, unassigned) [Example 128] | 3.8 nM
2 | C[C@]12Cc3cnn(-c4ccc(F)cc4)c3C=C1CC[C@@H]1[C@@H]2[C@@H](O)C[C@@]2(C)[C@H]1CC[C@]2(OC(=O)C1CCCCO1)C(=O)SCC#N (single isomer, unassigned) [Example 136] | 4.5 nM
3 | C[C@]12Cc3cnn(-c4ccc(F)cc4)c3C=C1CC[C@@H]1[C@@H]2[C@@H](O)C[C@@]2(C)[C@H]1CC[C@]2(OC(=O)C1CCCOC1)C(=O)SCC#N (single isomer, unassigned) [Example 138] | 3.8 nM
4 | Cc1ncsc1C(=O)O[C@]1(C(=O)SCF)CC[C@H]2[C@@H]3CCC4=Cc5c(cnn5-c5ccc(F)cc5)C[C@]4(C)[C@H]3[C@@H](O)C[C@@]21C [Example 1, (1R,3aS,3bS,10aR,10bS,11S,12aS)-1-{[(Fluoromethyl)thio]carbonyl}-7-(4-fluorophenyl)-11-hydroxy-10a,12a-dimethyl-1,2,3,3a,3b,4,5,7,10,10a,10b,11,12,12a-tetradecahydrocyclopenta[5,6]naphtho[1,2-f]indazol-1-yl 4-methyl-1,3-thiazole-5-carboxylate] | 7.6 nM
5 | Cc1ncsc1C(=O)O[C@]1(C(=O)SCC#N)CC[C@H]2[C@@H]3CCC4=Cc5c(cnn5-c5ccc(F)cc5)C[C@]4(C)[C@H]3[C@@H](O)C[C@@]21C [Example 2, (1R,3aS,3bS,10aR,10bS,11S,12aS)-1-{[(Cyanomethyl)thio]carbonyl}-7-(4-fluorophenyl)-11-hydroxy-10a,12a-dimethyl-1,2,3,3a,3b,4,5,7,10,10a,10b,11,12,12a-tetradecahydrocyclopenta[5,6]naphtho[1,2-f]indazol-1-yl 4-methyl-1,3-thiazole-5-carboxylate] | 7.4 nM
6 | CCSC(=O)[C@@]1(OC(=O)c2scnc2C)CC[C@H]2[C@@H]3CCC4=Cc5c(cnn5-c5ccc(F)cc5)C[C@]4(C)[C@H]3[C@@H](O)C[C@@]21C [Example 3, (1R,3aS,3bS,10aR,10bS,11S,12aS)-1-[(Ethylthio)carbonyl]-7-(4-fluorophenyl)-11-hydroxy-10a,12a-dimethyl-1,2,3,3a,3b,4,5,7,10,10a,10b,11,12,12a-tetradecahydrocyclopenta[5,6]naphtho[1,2-f]indazol-1-yl 4-methyl-1,3-thiazole-5-carboxylate] | 15 nM
7 | Cc1nnsc1C(=O)O[C@]1(C(=O)SCF)CC[C@H]2[C@@H]3CCC4=Cc5c(cnn5-c5ccc(F)cc5)C[C@]4(C)[C@H]3[C@@H](O)C[C@@]21C [Example 4, (1R,3aS,3bS,10aR,10bS,11S,12aS)-1-{[(Fluoromethyl)thio]carbonyl}-7-(4-fluorophenyl)-11-hydroxy-10a,12a-dimethyl-1,2,3,3a,3b,4,5,7,10,10a,10b,11,12,12a-tetradecahydrocyclopenta[5,6]naphtho[1,2-f]indazol-1-yl 4-methyl-1,2,3-thiadiazole-5-carboxylate] | 5.9 nM
8 | CCSC(=O)[C@@]1(OC(=O)c2snnc2C)CC[C@H]2[C@@H]3CCC4=Cc5c(cnn5-c5ccc(F)cc5)C[C@]4(C)[C@H]3[C@@H](O)C[C@@]21C [Example 5, (1R,3aS,3bS,10aR,10bS,11S,12aS)-1-[(Ethylthio)carbonyl]-7-(4-fluorophenyl)-11-hydroxy-10a,12a-dimethyl-1,2,3,3a,3b,4,5,7,10,10a,10b,11,12,12a-tetradecahydrocyclopenta[5,6]naphtho[1,2-f]indazol-1-yl 4-methyl-1,2,3-thiadiazole-5-carboxylate] | 15 nM
9 | Cc1nnsc1C(=O)O[C@]1(C(=O)SCC#N)CC[C@H]2[C@@H]3CCC4=Cc5c(cnn5-c5ccc(F)cc5)C[C@]4(C)[C@H]3[C@@H](O)C[C@@]21C [Example 6, (1R,3aS,3bS,10aR,10bS,11S,12aS)-1-{[(Cyanomethyl)thio]carbonyl}-7-(4-fluorophenyl)-11-hydroxy-10a,12a-dimethyl-1,2,3,3a,3b,4,5,7,10,10a,10b,11,12,12a-tetradecahydrocyclopenta[5,6]naphtho[1,2-f]indazol-1-yl 4-methyl-1,2,3-thiadiazole-5-carboxylate] | 5.9 nM
10 | C[C@]12Cc3cnn(-c4ccc(F)cc4)c3C=C1CC[C@@H]1[C@@H]2[C@@H](O)C[C@@]2(C)[C@H]1CC[C@]2(OC(=O)c1ccco1)C(=O)SCC#N [Example 7, (1R,3aS,3bS,10aR,10bS,11S,12aS)-1-{[(Cyanomethyl)thio]carbonyl}-7-(4-fluorophenyl)-11-hydroxy-10a,12a-dimethyl-1,2,3,3a,3b,4,5,7,10,10a,10b,11,12,12a-tetradecahydrocyclopenta[5,6]naphtho[1,2-f]indazol-1-yl 2-furoate] | 5.6 nM
11 | C[C@]12Cc3cnn(-c4ccc(F)cc4)c3C=C1CC[C@@H]1[C@@H]2[C@@H](O)C[C@@]2(C)[C@H]1CC[C@]2(OC(=O)c1ccco1)C(=O)SCF [Example 8, (1R,3aS,3bS,10aR,10bS,11S,12aS)-1-{[(Fluoromethyl)thio]carbonyl}-7-(4-fluorophenyl)-11-hydroxy-10a,12a-dimethyl-1,2,3,3a,3b,4,5,7,10,10a,10b,11,12,12a-tetradecahydrocyclopenta[5,6]naphtho[1,2-f]indazol-1-yl 2-furoate] | 4.7 nM
12 | Cc1ncsc1C(=O)O[C@]1(C(=O)OCC#N)CC[C@H]2[C@@H]3CCC4=Cc5c(cnn5-c5ccc(F)cc5)C[C@]4(C)[C@H]3[C@@H](O)C[C@@]21C [Example 9, Cyanomethyl(1R,3aS,3bS,10aR,10bS,11S,12aS)-7-(4-fluorophenyl)-11-hydroxy-10a,12a-dimethyl-1-{[(4-methyl-1,3-thiazol-5-yl)carbonyl]oxy}-1,2,3,3a,3b,4,5,7,10,10a,10b,11,12,12a-tetradecahydrocyclopenta[5,6]naphtho[1,2-f]indazole-1-carboxylate] | 9.4 nM
13 | CCC(=O)O[C@]1(C(=O)SCC#N)CC[C@H]2[C@@H]3CCC4=Cc5c(cnn5-c5ccc(F)cc5)C[C@]4(C)[C@H]3[C@@H](O)C[C@@]21C [Example 10, (1R,3aS,3bS,10aR,10bS,11S,12aS)-1-{[(Cyanomethyl)thio]carbonyl}-7-(4-fluorophenyl)-11-hydroxy-10a,12a-dimethyl-1,2,3,3a,3b,4,5,7,10,10a,10b,11,12,12a-tetradecahydrocyclopenta[5,6]naphtho[1,2-f]indazol-1-yl propionate] | 3.2 nM
14 | CCC(=O)O[C@]1(C(=O)SCC(=O)OC)CC[C@H]2[C@@H]3CCC4=Cc5c(cnn5-c5ccc(F)cc5)C[C@]4(C)[C@H]3[C@@H](O)C[C@@]21C [Example 11, (1R,3aS,3bS,10aR,10bS,11S,12aS)-7-(4-Fluorophenyl)-11-hydroxy-1-{[(2-methoxy-2-oxoethyl)thio]carbonyl}-10a,12a-dimethyl-1,2,3,3a,3b,4,5,7,10,10a,10b,11,12,12a-tetradecahydrocyclopenta[5,6]naphtho[1,2-f]indazol-1-yl propanoate] | 3.8 nM
15 | CCC(=O)O[C@]1(C(=O)SC(C)C#N)CC[C@H]2[C@@H]3CCC4=Cc5c(cnn5-c5ccc(F)cc5)C[C@]4(C)[C@H]3[C@@H](O)C[C@@]21C (stereo partly drawn) [Example 12, (1R,3aS,3bS,10aR,10bS,11S,12aS)-1-{[(1-Cyanoethyl)thio]carbonyl}-7-(4-fluoro-phenyl)-11-hydroxy-10a,12a-dimethyl-1,2,3,3a,3b,4,5,7,10,10a,10b,11,12,12a-tetradecahydrocyclopenta[5,6]naphtho[1,2-f]indazol-1-yl propanoate] | 5.8 nM
